The structures appear in SMILES notation.

One data set has as its system DENV-2 16681 strain. Nature of the data set: DENV-2 antiviral assay (eGFP-labeled virus in Vero cells). It is filed as cell-based, Dengue virus. The following applies: for EC50: DENV-2 16681 eGFP, Vero cells, MOI 0.5, 3 days; for SI: SI=CC50/EC50, DENV-2 antiviral assay.
Another data set concerns Vero cells. The following applies: African green monkey.
A further data set is described as follows: in vitro. Particulars: African green monkey.
Another data set relates to DENV-4 strain H241. Description: Tetravalent RT-qPCR assay, serotype 4. It is filed as cell-based, Dengue virus. The protocol: (§1) The antiviral activity of the compounds of the invention was tested against DENV-1 strain TC974#666 (NCPV), DENV-2 strain 16681, DENV-3 strain H87 (NCPV) and DENV-4 strain H241 (NCPV) in a RT-qPCR assay. Therefore, Vero cells were infected with either DENV-1, or -2, or -3, or -4 in the presence or absence of test compounds. At day 3 post-infection, the cells were lysed and cell lysates were used to prepare cDNA of both a viral target (the 3′UTR of DENV; Table 2) and a cellular reference gene (1-actin, Table 2). Subsequently, a duplex real time PCR was performed on a Lightcycler480 instrument. The generated Cp value is inversely proportional to the amount of RNA expression of these targets. Inhibition of DENV replication by a test compound results in a shift of Cp's for the 3′UTR gene. On the other hand, if a test compound is toxic to the cells, a similar effect on β-actin expression will be observed. The comparative ΔΔCp method is used to calculate EC50, which is based on the relative gene expression of the target gene (3′UTR) normalized with the cellular housekeeping gene (β-actin). In addition, CC50 values are determined based on the Cp values acquired for the housekeeping gene β-actin.
(§2) The culture medium consisted of minimal essential medium supplemented with 2% of heat-inactivated fetal calf serum, 0.04% gentamycin (50 mg/mL) and 2 mM of L-glutamine. Vero cells, obtained from ECACC, were suspended in culture medium and 75 μL/well was added in 96-well plates (10000 cells/well), which already contain the antiviral compounds. […] In addition, each plate contains wells which are assigned as virus controls (containing cells and virus in the absence of compound) and cell controls (containing cells in the absence of virus and compound). Once the cells were added in the plates, the plates were incubated in a fully humidified incubator (37° C., 5% CO2) until the next day. Dengue viruses serotype-1, 2, 3 and 4 were diluted in order to obtain a Cp of ˜22-24 in the assay. Therefore, 25 μL of virus suspension was added to all the wells containing test compound and to the wells assigned as virus control. In parallel, 25 μL of culture medium was added to the cell controls. Next, the plates were incubated for 3 days in a fully humidified incubator (37° C., 5% CO2). After 3 days, the supernatant was removed from the wells and the cells were washed twice with ice-cold PBS (˜100 μL). The cell pellets within the 96-well plates were stored at −80° C. for at least 1 day. Next, RNA was extracted using the Cells-to-CT™ lysis kit, according to the manufacturer's guideline (Life Technologies). The cell lysates can be stored at −80° C. or immediately used in the reverse transcription step.
(§3) In preparation of the reverse transcription step, mix A (table 3A) was prepared and 7.57 μL/well was dispensed in a 96-well plate. After addition of 5 μL of the cell lysates, a five minute denaturation step at 75° C. was performed (table 3B). Afterwards, 7.43 μL of mix B was added (table 3C) and the reverse transcription step was initiated (table 3D) to generate cDNA.
(§4) Finally, a RT-qPCR mix was prepared, mix C (table 4A), and 22.02 μL/well was dispensed in 96-well LightCycler qPCR plates to which 3 μL of cDNA was added and the qPCR was performed according to the conditions in table 4B on a LightCycler 480.
(§5) Using the LightCycler software and an in-house LIMS system, dose response curves for each compound were calculated and the half maximal effective concentration (EC50) and the half maximal cytotoxic concentration (CC50) were determined (Tables 5-8).
Background: Real-time PCR tracks product formation cycle by cycle.

For another data set, the system named is DENV-2 strain 16681. Description: Tetravalent RT-qPCR assay, serotype 2. Type of data set: cell-based, Dengue virus. The protocol: as §1, §2, §3, §4, §5
Another data set has as its system DENV-3 strain H87. Nature of the data set: Tetravalent RT-qPCR assay, serotype 3. It is filed as cell-based, Dengue virus. The protocol: as §1, §2, §3, §4, §5
The next data set concerns DENV-1 strain TC974#666. Description: Tetravalent RT-qPCR assay, serotype 1. Type of data set: cell-based, Dengue virus. The protocol:
as §1, §2, §3, §4, §5

Where [1] appears, read: Dengue virus, DENV2, Vero, 72 h.

For orientation: EC50 means the concentration that produces a half-maximal response. With `COc1cc(NC(C(=O)N2CCc3ccc(C(F)(F)F)cc32)c2ccc(F)cc2OCCO)cc(S(C)(=O)=O)c1` (single isomer, unassigned) [Compound 1A], in the data set with DENV-2 16681 strain, a half-maximal response (EC50) required 2400 nM and the SI was found to be 4.8. Besides, the CC50 in the data set on Vero cells was 12000 nM.

In the data set with DENV-2 16681 strain, `COc1cc(NC(C(=O)N2CCc3ccc(OC(F)(F)F)cc32)c2ccc(Cl)cc2OCCO)cc(S(C)(=O)=O)c1` (single isomer, unassigned) [Compound 6B] came in with an EC50 of 20 nM and an SI of 492. This molecule had a CC50 in the data set with Vero cells of 10000 nM.

Turning to `COc1cc(NC(C(=O)N2CCc3cc(OC)c(C(F)(F)F)cc32)c2ccc(Cl)cc2OCCCC(=O)O)cc(S(C)(=O)=O)c1` (racemic) [Compound 8, 4-(5-chloro-2-(1-((3-methoxy-5-(methylsulfonyl)phenyl)amino)-2-(5-methoxy-6-(trifluoromethyl)indolin-1-yl)-2-oxoethyl)phenoxy)butanoic acid], in the data set “in vitro”, the CC50 came to 14000 nM. Further, a half-maximal response in the data set on DENV-2 16681 strain (setting [1]) (EC50) required 1.9 nM. Moreover, the SI in the data set on DENV-2 16681 strain was found to be 7460.

For `COc1cc(NC(C(=O)N2CCc3cc(OC)c(C(F)(F)F)cc32)c2ccc(Cl)cc2OCCCC(=O)O)cc(S(C)(=O)=O)c1` (single isomer, unassigned) [Compound 8A], the CC50 in the data set “in vitro” is 12000 nM. Moreover, in the data set on DENV-2 16681 strain, the EC50 turned out to be 95 nM and the SI is listed as 126.

In the case of `COc1cc(NC(C(=O)N2CCc3ccc(OC(F)(F)F)cc32)c2ccc(F)cc2OCCO)cc(S(C)(=O)=O)c1` (racemic) [Compound 3, 2-(4-fluoro-2-(2-hydroxyethoxy)phenyl)-2-((3-methoxy-5-(methylsulfonyl)phenyl)amino)-1-(6-(trifluoromethoxy)indolin-1-yl)ethanone], the CC50 in “in vitro” was determined as 7900 nM. This molecule yielded an EC50 in the data set on DENV-2 16681 strain (setting [1]) of 0.74 nM. In the data set on DENV-2 16681 strain, this molecule yielded an SI of 10700.

Regarding `COc1cc(NC(C(=O)N2CCc3ccc(C(F)(F)F)cc32)c2ccc(F)cc2OCCO)cc(S(C)(=O)=O)c1` (racemic) [Compound 1, 2-(4-fluoro-2-(2-hydroxyethoxy)phenyl)-2-((3-methoxy-5-(methylsulfonyl)phenyl)amino)-1-(6-(trifluoromethyl)indolin-1-yl)ethan-1-one], the CC50 in the data set “in vitro” was found to be 14000 nM. It took 3.2 nM to reach a half-maximal effect with DENV-2 16681 strain (setting [1]) (EC50). This molecule yielded an SI in the data set on DENV-2 16681 strain of 4397.

`COc1cc(NC(C(=O)N2CCc3ccc(C(F)(F)F)cc32)c2ccc(Cl)cc2OCCCC(=O)O)cc(S(C)(=O)=O)c1` (single isomer, unassigned) [Compound 7A] came in with a CC50 in “in vitro” of 11000 nM. Further, in the data set on DENV-2 16681 strain, the EC50 came to 69 nM and the SI is given as 165.

Turning to `COc1cc(NC(C(=O)N2CCc3ccc(C(F)(F)F)cc32)c2ccc(Cl)cc2OCCO)cc(S(C)(=O)=O)c1` (racemic) [Compound 4, 2-(4-chloro-2-(2-hydroxyethoxy)phenyl)-2-((3-methoxy-5-(methylsulfonyl)phenyl)amino)-1-(6-(trifluoromethyl)indolin-1-yl)ethanone], the CC50 in “in vitro” stood at 7700 nM. In the data set with DENV-2 16681 strain (setting [1]), this molecule displayed an EC50 of 0.66 nM. The SI in the data set on DENV-2 16681 strain is given as 11600.

Take `COc1cc(NC(C(=O)N2CCc3cc(OC)c(C(F)(F)F)cc32)c2ccc(F)cc2OCCO)cc(S(C)(=O)=O)c1` (racemic) [Compound 2, 2-(4-fluoro-2-(2-hydroxyethoxy)phenyl)-2-((3-methoxy-5-(methylsulfonyl)phenyl)amino)-1-(5-methoxy-6-(trifluoromethyl)indolin-1-yl)ethanone]: in “in vitro”, the CC50 is 12000 nM. Further, it took 1 nM to reach a half-maximal effect in the data set on DENV-2 16681 strain (setting [1]) (EC50). The SI in the data set with DENV-2 16681 strain turned out to be 13700.

For the molecule `COc1cc(NC(C(=O)N2CCc3cc(OC)c(C(F)(F)F)cc32)c2ccc(Cl)cc2OCCO)cc(S(C)(=O)=O)c1` (racemic) [Compound 5, 2-(4-chloro-2-(2-hydroxyethoxy)phenyl)-2-((3-methoxy-5-(methylsulfonyl)phenyl)amino)-1-(5-methoxy-6-(trifluoromethyl)indolin-1-yl)ethanone], the CC50 in the data set “in vitro” turned out to be 11000 nM. In the data set on DENV-2 16681 strain (setting [1]), this molecule registered a concentration for a half-maximal effect (EC50) of 0.7 nM. The SI with DENV-2 16681 strain was 15700.

Regarding `COc1cc(NC(C(=O)N2CCc3ccc(C(F)(F)F)cc32)c2ccc(Cl)cc2OCCCC(=O)O)cc(S(C)(=O)=O)c1` (racemic) [Compound 7, 4-(5-chloro-2-(1-((3-methoxy-5-(methylsulfonyl)phenyl)amino)-2-oxo-2-(6-(trifluoromethyl)indolin-1-yl)ethyl)phenoxy)butanoic acid], the CC50 in the data set “in vitro” stood at 13000 nM. The same molecule yielded a 50% effective concentration (EC50) in the data set with DENV-2 16681 strain (setting [1]) of 0.58 nM. In the data set with DENV-2 16681 strain, this molecule yielded an SI of 21800.

Turning to `COc1cc(NC(C(=O)N2CCc3ccc(OC(F)(F)F)cc32)c2ccc(Cl)cc2OCCO)cc(S(C)(=O)=O)c1` (racemic) [Compound 6, 2-(4-chloro-2-(2-hydroxyethoxy)phenyl)-2-((3-methoxy-5-(methylsulfonyl)phenyl)amino)-1-(6-(trifluoromethoxy)indolin-1-yl)ethanone], in “in vitro”, the CC50 came to 3600 nM. Also, the EC50 with DENV-2 16681 strain (setting [1]) came out at 0.43 nM. For the same molecule, the SI in the data set on DENV-2 16681 strain worked out at 7070.

As to `COc1cc(NC(C(=O)N2CCc3ccc(OC(F)(F)F)cc32)c2ccc(Cl)cc2OCCCC(=O)O)cc(S(C)(=O)=O)c1` (single isomer, unassigned) [Compound 9A], in the data set “in vitro”, the CC50 was 12000 nM. Further, in the data set on DENV-2 16681 strain, the EC50 worked out at 120 nM and the SI is given as 93.

For `COc1cc(NC(C(=O)N2CCc3ccc(OC(F)(F)F)cc32)c2ccc(Cl)cc2OCCCC(=O)O)cc(S(C)(=O)=O)c1` (racemic) [Compound 9, 4-(5-chloro-2-(1-((3-methoxy-5-(methylsulfonyl)phenyl)amino)-2-oxo-2-(6-(trifluoromethoxy)indolin-1-yl)ethyl)phenoxy)butanoic acid], in the data set “in vitro”, the CC50 is 12000 nM. Moreover, the EC50 with DENV-2 16681 strain (setting [1]) came to 0.31 nM. In addition, in the data set with DENV-2 16681 strain, the SI stood at 40200.

As for `COc1cc(NC(C(=O)N2CCc3cc(OC)c(C(F)(F)F)cc32)c2ccc(Cl)cc2OCCO)cc(S(C)(=O)=O)c1` (single isomer, unassigned) [Compound 5A], the CC50 in the data set “in vitro” is 16000 nM. Moreover, in the data set on DENV-2 16681 strain, the concentration giving a half-maximal response (EC50) was 76 nM and the SI is listed as 210.

`COc1cc(NC(C(=O)N2CCc3ccc(OC(F)(F)F)cc32)c2ccc(F)cc2OCCO)cc(S(C)(=O)=O)c1` (single isomer, unassigned) [Compound 3A] returned a CC50 in “in vitro” of 11000 nM. In the data set on DENV-2 16681 strain, this molecule displayed a 50% effective concentration (EC50) of 570 nM and an SI of 19.

For the molecule `COc1cc(NC(C(=O)N2CCc3cc(OC)c(C(F)(F)F)cc32)c2ccc(F)cc2OCCO)cc(S(C)(=O)=O)c1` (single isomer, unassigned) [Compound 2A], the EC50 amounted to 100 nM with DENV-4 strain H241 (Dengue virus, DENV4, 72 h, RT-qPCR serotype 4 H241, Vero cells, day 3, read-out: EC50); 0.93 nM with DENV-2 16681 strain; 1.3 nM in the data set with DENV-2 strain 16681 (Dengue virus, DENV2, 72 h, RT-qPCR serotype 2 16681, Vero cells, day 3); 20 nM in the data set with DENV-3 strain H87 (Dengue virus, DENV3, 72 h, RT-qPCR serotype 3 H87, Vero cells, day 3); 4.6 nM in the data set on DENV-1 strain TC974#666 (Dengue virus, DENV1, 72 h, RT-qPCR serotype 1 TC974#666, Vero cells, day 3). In addition, the SI in the data set on DENV-4 strain H241 (RT-qPCR serotype 4 H241) is on record as 35; in the data set with DENV-2 16681 strain it was 16400; with DENV-2 strain 16681 (RT-qPCR serotype 2 16681) it was 4910; with DENV-3 strain H87 (RT-qPCR serotype 3 H87), more than 157; in the data set on DENV-1 strain TC974#666 (RT-qPCR serotype 1 TC974#666), more than 981. In “in vitro”, this molecule had a CC50 of 9600 nM.
